{
  "source": "patent US20160272617A1",
  "about": "“SUBSTITUTED PHENYLALANINE DERIVATIVES” (BAYER PHARMA AKTIENGESELLSCHAFT, priority 2013, published 2016)",
  "key": {"[1]": {"target": "T1, human factor XIa (Homo sapiens, UniProt P03951)", "T1 construct": "purchased Kordia", "T1 sequence (P03951 388-625 limits assumed)": "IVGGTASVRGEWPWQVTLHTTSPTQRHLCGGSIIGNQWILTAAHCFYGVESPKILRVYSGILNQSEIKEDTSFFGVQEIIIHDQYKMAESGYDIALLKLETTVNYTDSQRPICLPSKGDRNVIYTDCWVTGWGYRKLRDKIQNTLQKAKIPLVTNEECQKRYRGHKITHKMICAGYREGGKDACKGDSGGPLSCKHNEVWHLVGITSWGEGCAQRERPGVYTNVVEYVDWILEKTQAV", "T1 sequence (P03951 19-387 partner limits assumed)": "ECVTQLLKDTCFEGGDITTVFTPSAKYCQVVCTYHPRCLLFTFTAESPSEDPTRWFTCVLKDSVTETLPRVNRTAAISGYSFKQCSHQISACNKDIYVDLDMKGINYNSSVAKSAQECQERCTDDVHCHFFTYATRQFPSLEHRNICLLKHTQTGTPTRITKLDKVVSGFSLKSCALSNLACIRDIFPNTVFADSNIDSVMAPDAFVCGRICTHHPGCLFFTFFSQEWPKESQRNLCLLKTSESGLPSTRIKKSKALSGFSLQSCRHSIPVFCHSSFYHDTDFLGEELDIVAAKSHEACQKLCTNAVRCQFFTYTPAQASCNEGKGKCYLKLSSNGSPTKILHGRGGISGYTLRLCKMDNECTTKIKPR", "test": "Measurement of FXIa inhibition (fluorogenic peptide substrate Boc-Glu(OBzl)-Ala-Arg-AMC)", "format": "biochemical", "settings": "factor XIa from Kordia, 15 min preincubation, 30 min at 22° C., fluorescence", "outline": "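Released AMC fluorescence (360/460 nm) read after 30 min at 22 °C. The reaction was started with Boc-Glu(OBzl)-Ala-Arg-AMC (10 μM stock) after a 15 min preincubation of the enzyme (0.45 nM stock) with compound (final 50 μM to 0.00013 μM).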"}, "[2]": {"system": "human and animal plasma", "test": "Determination of anticoagulatory activity: activated partial thromboplastin time (aPTT) in plasma", "settings": "concentration of test substance which brings about a 1.5-fold extension of the aPTT; plasma species not given", "outline": "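Citrated plasma (1:9, 0.11 M citrate; 4000 g, 15 min) from human or animal blood incubated with test compound and cephalin/kaolin PTT reagent for 3 min at 37° C.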"}},
  "note": "Structures can show the parent of a compound that is named as a salt.",
  "data": [
    {"smiles": "CCN(C)C1CCC(NC(=O)c2ccc(-c3ccc(C[C@H](NC(=O)[C@H]4CC[C@H](CN)CC4)C(=O)Nc4ccc(-c5nnn[nH]5)cc4)cc3)c(C)c2)CC1", "note": "(stereo partly drawn) [Example 150, 4′-[(2S)-2-({[trans-4-(Aminomethyl)cyclohexyl]carbonyl}amino)-3-oxo-3-{[4-(1H-tetrazol-5-yl)phenyl]amino}propyl]-N-{4-[ethyl(methyl)amino]cyclohexyl}-2-methylbiphenyl-4-carboxamide hydrochloride]", "values": [
      {"measurement": "IC50", "setting": "[1]", "result": 2.5, "unit": "nM"},
      {"measurement": "aPTT", "setting": "[2]", "result": 0.07, "unit": "µmol/L"}
    ]},
    {"smiles": "Cc1cc(C(=O)NC2CCCNC2=O)ccc1-c1ccc(C[C@H](NC(=O)[C@H]2CC[C@H](CN)CC2)C(=O)Nc2ccc(-c3nnc(C(F)(F)C(F)(F)C(=O)O)[nH]3)cc2)cc1", "note": "(stereo partly drawn) [Example 155, 3-[5-(4-{[(2S)-2-({[trans-4-(Aminomethyl)cyclohexyl]carbonyl}amino)-3-{2′-methyl-4′-[(2-oxopiperidin-3-yl)carbamoyl]biphenyl-4-yl}propanoyl]amino}phenyl)-4H-1,2,4-triazol-3-yl]-2,2,3,3-tetrafluoropropanoic acid hydrochloride]", "values": [
      {"measurement": "IC50", "setting": "[1]", "result": 1, "unit": "nM"},
      {"measurement": "aPTT", "setting": "[2]", "result": 0.16, "unit": "µmol/L"}
    ]},
    {"smiles": "NC[C@H]1CC[C@H](C(=O)N[C@@H](Cc2ccc(-c3ccc(C(=O)N[C@@H]4CCCNC4=O)c(F)c3)cc2)C(=O)Nc2ccc(-c3n[nH]c(C(F)(F)C(F)(F)C(=O)O)n3)cc2)CC1", "note": "[Example 111, 3-[3-(4-{[(2S)-2-({[trans-4-(Aminomethyl)cyclohexyl]carbonyl}amino)-3-(3′-fluoro-4′-{[(3R)-2-oxopiperidin-3-yl]carbamoyl}biphenyl-4-yl)propanoyl]amino}phenyl)-1H-1,2,4-triazol-5-yl]-2,2,3,3-tetrafluoropropanoic acid hydrochloride]", "values": [
      {"measurement": "IC50", "setting": "[1]", "result": 1, "unit": "nM"},
      {"measurement": "aPTT", "setting": "[2]", "result": 0.13, "unit": "µmol/L"}
    ]},
    {"smiles": "Cc1c(C(=O)NC2CCN(C)CC2)ccc(-c2ccc(C[C@H](NC(=O)[C@H]3CC[C@H](CN)CC3)C(=O)Nc3ccc(-c4nn[nH]n4)cc3)cc2)c1Cl", "note": "[Example 125, 4′-[(2S)-2-({[trans-4-(Aminomethyl)cyclohexyl]carbonyl}amino)-3-oxo-3-{[4-(2H-tetrazol-5-yl)phenyl]amino}propyl]-2-chloro-3-methyl-N-(1-methylpiperidin-4-yl)biphenyl-4-carboxamide hydrochloride]", "values": [
      {"measurement": "IC50", "setting": "[1]", "result": 3, "unit": "nM"},
      {"measurement": "aPTT", "setting": "[2]", "result": 0.09, "unit": "µmol/L"}
    ]},
    {"smiles": "Cc1cc(C(=O)NC2CCNCC2)ccc1-c1ccc(C[C@H](NC(=O)[C@H]2CC[C@H](CN)CC2)C(=O)Nc2ccc3[nH]c(-c4ccccn4)nc3c2)cc1", "note": "[Example 51, 4′-[(2S)-2-({[trans-4-(Aminomethyl)cyclohexyl]carbonyl}amino)-3-oxo-3-{[2-(pyridin-2-yl)-1H-benzimidazol-5-yl]amino}propyl]-2-methyl-N-(piperidin-4-yl)biphenyl-4-carboxamide hydrochloride]", "values": [
      {"measurement": "IC50", "setting": "[1]", "result": 11, "unit": "nM"},
      {"measurement": "aPTT", "setting": "[2]", "result": 0.44, "unit": "µmol/L"}
    ]},
    {"smiles": "Cc1cc(C(=O)N[C@H]2CCNC2)ccc1-c1ccc(C[C@H](NC(=O)[C@H]2CC[C@H](CN)CC2)C(=O)Nc2ccc3c(=O)[nH][nH]c3c2)cc1", "note": "[Example 25, 4′-{(2S)-2-({[trans-4-(Aminomethyl)cyclohexyl]carbonyl}amino)-3-oxo-3-[(3-oxo-2,3-dihydro-1H-indazol-6-yl)amino]propyl}-2-methyl-N-[(3S)-pyrrolidin-3-yl]biphenyl-4-carboxamide hydrochloride]", "values": [
      {"measurement": "IC50", "setting": "[1]", "result": 14, "unit": "nM"},
      {"measurement": "aPTT", "setting": "[2]", "result": 0.14, "unit": "µmol/L"}
    ]},
    {"smiles": "Cc1cc(C(=O)N[C@@H]2C[C@@H](CO)NC2=O)ccc1-c1ccc(C[C@H](NC(=O)[C@H]2CC[C@H](CN)CC2)C(=O)Nc2ccc(-c3nc(C(F)(F)C(F)(F)C(=O)O)n[nH]3)cc2)cc1", "note": "[Example 106, 3-[5-(4-{[(2S)-2-({[trans-4-(Aminomethyl)cyclohexyl]carbonyl}amino)-3-(4′-{[(3R,5S)-5-(hydroxymethyl)-2-oxopyrrolidin-3-yl]carbamoyl}-2′-methylbiphenyl-4-yl)propanoyl]amino}-phenyl)-1H-1,2,4-triazol-3-yl]-2,2,3,3-tetrafluoropropanoic acid hydrochloride]", "values": [
      {"measurement": "IC50", "setting": "[1]", "result": 1.1, "unit": "nM"},
      {"measurement": "aPTT", "setting": "[2]", "result": 0.11, "unit": "µmol/L"}
    ]},
    {"smiles": "Cc1cc(C(=O)N[C@@H]2CCNC2)ccc1-c1ccc(C[C@H](NC(=O)[C@H]2CC[C@H](CN)CC2)C(=O)Nc2ccc(-c3nn[nH]n3)cc2)cc1", "note": "[Example 8, 4′-[(2S)-2-({[trans-4-(Aminomethyl)cyclohexyl]carbonyl}amino)-3-oxo-3-{[4-(2H-tetrazol-5-yl)phenyl]amino}propyl]-2-methyl-N-[(3R)-pyrrolidin-3-yl]biphenyl-4-carboxamide hydrochloride]", "values": [
      {"measurement": "IC50", "setting": "[1]", "result": 2.5, "unit": "nM"},
      {"measurement": "aPTT", "setting": "[2]", "result": 0.09, "unit": "µmol/L"}
    ]},
    {"smiles": "Cc1cc(C(=O)NC2CCNCC2)ccc1-c1ccc(C[C@H](NC(=O)[C@H]2CC[C@H](CN)CC2)C(=O)Nc2ccc(-c3nn[nH]n3)cc2)cc1", "note": "[Example 36, 4′-[(2S)-2-({[trans-4-(Aminomethyl)cyclohexyl]carbonyl}amino)-3-oxo-3-{[4-(2H-tetrazol-5-yl)phenyl]amino}propyl]-2-methyl-N-(piperidin-4-yl)biphenyl-4-carboxamide]", "values": [
      {"measurement": "IC50", "setting": "[1]", "result": 1.7, "unit": "nM"},
      {"measurement": "aPTT", "setting": "[2]", "result": 0.07, "unit": "µmol/L"}
    ]},
    {"smiles": "Cc1cc(C(=O)N[C@H]2CC[C@H](N)CC2)ccc1-c1ccc(C[C@H](NC(=O)[C@H]2CC[C@H](CN)CC2)C(=O)Nc2ccc(-c3nn[nH]n3)cc2)cc1", "note": "[Example 34, N-(trans-4-Aminocyclohexyl)-4′-[(2S)-2-({[trans-4-(aminomethyl)cyclohexyl]carbonyl}amino)-3-oxo-3-{[4-(2H-tetrazol-5-yl)phenyl]amino}propyl]-2-methylbiphenyl-4-carboxamide hydrochloride]", "values": [
      {"measurement": "IC50", "setting": "[1]", "result": 1.4, "unit": "nM"},
      {"measurement": "aPTT", "setting": "[2]", "result": 0.11, "unit": "µmol/L"}
    ]},
    {"smiles": "Cc1cc(C(=O)N[C@@H]2CCNC2=O)ccc1-c1ccc(C[C@H](NC(=O)[C@H]2CC[C@H](CN)CC2)C(=O)Nc2ccc3cn[nH]c3c2)cc1", "note": "[Example 145, 4′-[(2S)-2-({[trans-4-(Aminomethyl)cyclohexyl]carbonyl}amino)-3-(1H-indazol-6-ylamino)-3-oxopropyl]-2-methyl-N-[(3R)-2-oxopyrrolidin-3-yl]biphenyl-4-carboxamide hydrochloride]", "values": [
      {"measurement": "IC50", "setting": "[1]", "result": 3.2, "unit": "nM"},
      {"measurement": "aPTT", "setting": "[2]", "result": 0.07, "unit": "µmol/L"}
    ]},
    {"smiles": "COc1cc(C(=O)NC2CCN(C)CC2)cc(OC)c1-c1ccc(C[C@H](NC(=O)[C@H]2CC[C@H](CN)CC2)C(=O)Nc2ccc(-c3nn[nH]n3)cc2)cc1", "note": "[Example 117, 4′-[(2S)-2-({[trans-4-(Aminomethyl)cyclohexyl]carbonyl}amino)-3-oxo-3-{[4-(2H-tetrazol-5-yl)phenyl]amino}propyl]-2,6-dimethoxy-N-(1-methylpiperidin-4-yl)biphenyl-4-carboxamide hydrochloride]", "values": [
      {"measurement": "IC50", "setting": "[1]", "result": 8.9, "unit": "nM"},
      {"measurement": "aPTT", "setting": "[2]", "result": 0.18, "unit": "µmol/L"}
    ]},
    {"smiles": "Cc1cc(C(=O)NCCCN(C)C)ccc1-c1ccc(C[C@H](NC(=O)[C@H]2CC[C@H](CN)CC2)C(=O)Nc2ccc3[nH]c(C(F)(F)C(F)(F)F)nc3c2)cc1", "note": "[Example 81, 4′-[(2S)-2-({[trans-4-(Aminomethyl)cyclohexyl]carbonyl}amino)-3-oxo-3-{[2-(pentafluoroethyl)-1H-benzimidazol-5-yl]amino}propyl]-N-[3-(dimethylamino)propyl]-2-methylbiphenyl-4-carboxamide hydrochloride]", "values": [
      {"measurement": "IC50", "setting": "[1]", "result": 22, "unit": "nM"},
      {"measurement": "aPTT", "setting": "[2]", "result": 0.41, "unit": "µmol/L"}
    ]},
    {"smiles": "Cc1cc(C(=O)NC2CCNCC2(C)C)ccc1-c1ccc(C[C@H](NC(=O)[C@H]2CC[C@H](CN)CC2)C(=O)Nc2ccc(-c3nnc(C(F)(F)C(F)(F)C(=O)O)[nH]3)cc2)cc1", "note": "(stereo partly drawn) [Example 107, 3-[5-(4-{[(2S)-2-({[trans-4-(Aminomethyl)cyclohexyl]carbonyl}amino)-3-{4′-[(3,3-dimethylpiperidin-4-yl)carbamoyl]-2′-methylbiphenyl-4-yl}propanoyl]amino}phenyl)-4H-1,2,4-triazol-3-yl]-2,2,3,3-tetrafluoropropanoic acid hydrochloride]", "values": [
      {"measurement": "IC50", "setting": "[1]", "result": 1.4, "unit": "nM"},
      {"measurement": "aPTT", "setting": "[2]", "result": 0.1, "unit": "µmol/L"}
    ]},
    {"smiles": "CCN(CC)CCNC(=O)c1ccc(-c2ccc(C[C@H](NC(=O)[C@H]3CC[C@H](CN)CC3)C(=O)Nc3ccc4c(=O)[nH][nH]c4c3)cc2)c(C)c1", "note": "[Example 23, 4′-{(2S)-2-({[trans-4-(Aminomethyl)cyclohexyl]carbonyl}amino)-3-oxo-3-[(3-oxo-2,3-dihydro-1H-indazol-6-yl)amino]propyl}-N-[2-(diethylamino)ethyl]-2-methylbiphenyl-4-carboxamide hydrochloride]", "values": [
      {"measurement": "IC50", "setting": "[1]", "result": 27.5, "unit": "nM"},
      {"measurement": "aPTT", "setting": "[2]", "result": 0.28, "unit": "µmol/L"}
    ]},
    {"smiles": "Cc1cc(C(=O)NC2CC3CCC(C2)N3C)ccc1-c1ccc(C[C@H](NC(=O)C2CCC(CN)CC2)C(=O)Nc2ccc(-c3nn[nH]n3)cc2)cc1", "note": "(stereo partly drawn) [Example 44, 4′-[(2S)-2-({[trans-4-(Aminomethyl)cyclohexyl]carbonyl}amino)-3-oxo-3-{[4-(2H-tetrazol-5-yl)phenyl]amino}propyl]-2-methyl-N-(8-methyl-8-azabicyclo[3.2.1]oct-3-yl)biphenyl-4-carboxamide hydrochloride]", "values": [
      {"measurement": "IC50", "setting": "[1]", "result": 5.7, "unit": "nM"},
      {"measurement": "aPTT", "setting": "[2]", "result": 0.11, "unit": "µmol/L"}
    ]},
    {"smiles": "CCN(CC)CCNC(=O)c1ccc(-c2ccc(C[C@H](NC(=O)[C@H]3CC[C@H](CN)CC3)C(=O)Nc3ccc(-c4nn[nH]n4)cc3)cc2)cc1", "note": "[Example 38, 4′-[(2S)-2-({[trans-4-(Aminomethyl)cyclohexyl]carbonyl}amino)-3-oxo-3-{[4-(2H-tetrazol-5-yl)phenyl]amino}propyl]-N-{2-[diethylamino]ethyl}biphenyl-4-carboxamide hydrochloride]", "values": [
      {"measurement": "IC50", "setting": "[1]", "result": 14, "unit": "nM"},
      {"measurement": "aPTT", "setting": "[2]", "result": 0.42, "unit": "µmol/L"}
    ]},
    {"smiles": "Cc1cc(C(=O)N[C@H]2CC[C@H](O)CC2)ccc1-c1ccc(C[C@H](NC(=O)[C@H]2CC[C@H](CN)CC2)C(=O)Nc2ccc(-c3nnc(C(F)(F)C(F)(F)C(=O)O)[nH]3)cc2)cc1", "note": "(single isomer, unassigned; enantiomer 1) [Example 104]", "values": [
      {"measurement": "IC50", "setting": "[1]", "result": 0.4, "unit": "nM"},
      {"measurement": "aPTT", "setting": "[2]", "result": 0.05, "unit": "µmol/L"}
    ]}
  ]
}
